Assay results taken from PubChem BioAssay AID1963966 (Molecular Pharmacology Branch, DTP, NCI, 2024).

Test system: 935938-334-R-J1-PDC spheroids with HUVEC/MSC, viability
Assay: Anticancer human tumor 935938-334-R-J1-PDC patient-derived small intestine adenocarcinoma cell line growth inhibition [PI3K]
Conditions: for IC50: curve of first compound; for viability, T/C: stronger effect = lower value; active means viability on the fitted dose curve at most 10% of control; inactive means the rest
Method in brief: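 Agents were dosed from a top concentration near clinical Cmax (otherwise 10 microM) in half-log decrements, alone or combined with PI3K inhibitors. The spheroids contain tumor cells plus endothelial (HUVEC) and MSC stroma; viability is measured.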

[1] = second compound 0.0316 µM, first compound 0.0316 µM
[2] = second compound 0.0316 µM, first compound 0.1 µM
[3] = second compound 0.0316 µM, first compound 0.316 µM
[4] = second compound 0.0316 µM, first compound 1 µM
[5] = second compound 0.0316 µM, first compound 3.16 µM
[6] = second compound 0.0316 µM, first compound 10 µM
[7] = second compound 0.1 µM, first compound 0.0316 µM
[8] = second compound 0.1 µM, first compound 0.1 µM
[9] = second compound 0.1 µM, first compound 0.316 µM
[10] = second compound 0.1 µM, first compound 1 µM
[11] = second compound 0.1 µM, first compound 3.16 µM
[12] = second compound 0.1 µM, first compound 10 µM
[13] = second compound 0.316 µM, first compound 0.0316 µM
[14] = second compound 0.316 µM, first compound 0.1 µM
[15] = second compound 0.316 µM, first compound 0.316 µM
[16] = second compound 0.316 µM, first compound 1 µM
[17] = second compound 0.316 µM, first compound 3.16 µM
[18] = second compound 0.316 µM, first compound 10 µM
[19] = second compound 1 µM, first compound 0.0316 µM
[20] = second compound 1 µM, first compound 0.1 µM
[21] = second compound 1 µM, first compound 0.316 µM
[22] = second compound 1 µM, first compound 1 µM
[23] = second compound 1 µM, first compound 3.16 µM
[24] = second compound 1 µM, first compound 10 µM
[25] = second compound 3.16 µM, first compound 0.0316 µM
[26] = second compound 3.16 µM, first compound 0.1 µM
[27] = second compound 3.16 µM, first compound 0.316 µM
[28] = second compound 3.16 µM, first compound 1 µM
[29] = second compound 3.16 µM, first compound 3.16 µM
[30] = second compound 3.16 µM, first compound 10 µM
[31] = second compound 10 µM, first compound 0.0316 µM
[32] = second compound 10 µM, first compound 0.1 µM
[33] = second compound 10 µM, first compound 0.316 µM
[34] = second compound 10 µM, first compound 1 µM
[35] = second compound 10 µM, first compound 3.16 µM
[36] = second compound 10 µM, first compound 10 µM
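Further: compound exposure lasted seven days before viability was read.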
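Wherever viability, T/C is given: percent of vehicle DMSO treated spheroid viability so 100% = untreated.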

C#Cc1c(F)ccc2cc(O)cc(-c3ncc4c(N5CC6CCC(C5)N6)nc(OCC56CCCN5CC(F)C6)nc4c3F)c12 (stereo unspecified) + CC(Nc1ncnc2nc[nH]c12)c1cc2cccc(Cl)c2c(=O)n1-c1ccccc1
4.52 µM: IC50 (second compound 0.0316 µM)
inactive: viability, T/C [1] 83.8% | viability, T/C [2] 82.3% | viability, T/C [3] 83.2% | viability, T/C [4] 65.5% | viability, T/C [5] 56.8% | viability, T/C [6] 39% | viability, T/C [7] 99.4% | viability, T/C [8] 97% | viability, T/C [9] 91.9% | viability, T/C [10] 65.5% | viability, T/C [11] 53.3% | viability, T/C [12] 42.9% | viability, T/C [13] 88.8% | viability, T/C [14] 103% | viability, T/C [15] 89.3% | viability, T/C [16] 74.1% | viability, T/C [17] 54.3% | viability, T/C [18] 37.8% | viability, T/C [19] 76.7% | viability, T/C [20] 73.2% | viability, T/C [21] 60.4% | viability, T/C [22] 52.4% | viability, T/C [23] 57.4% | viability, T/C [24] 39.1% | viability, T/C [25] 82.8% | viability, T/C [26] 82.8% | viability, T/C [27] 110% | viability, T/C [28] 69.8% | viability, T/C [29] 44.5% | viability, T/C [30] 30.3% | viability, T/C [31] 70% | viability, T/C [32] 73.8% | viability, T/C [33] 60.4% | viability, T/C [34] 44.2% | viability, T/C [35] 36.2% | viability, T/C [36] 34%
2.23 µM: IC50 (second compound 3.16 µM)
0.663 µM: IC50 (second compound 10 µM)
2.84 µM: IC50 (second compound 1 µM)
3.15 µM: IC50 (second compound 0.1 µM)
3.98 µM: IC50 (second compound 0.316 µM)

C=CC(=O)N1CCN(c2nc(=O)n(-c3c(C)ccnc3C(C)C)c3nc(-c4c(O)cccc4F)c(F)cc23)C(C)C1 (stereo unspecified) + CC(Nc1ncnc2nc[nH]c12)c1cc2cccc(Cl)c2c(=O)n1-c1ccccc1
> 10 µM: IC50 (second compound 0.0316 µM) | IC50 (second compound 0.1 µM) | IC50 (second compound 0.316 µM) | IC50 (second compound 1 µM) | IC50 (second compound 3.16 µM) | IC50 (second compound 10 µM)
inactive: viability, T/C [1] 94.2% | viability, T/C [2] 103% | viability, T/C [3] 96.4% | viability, T/C [4] 84.3% | viability, T/C [5] 83.9% | viability, T/C [6] 95.8% | viability, T/C [7] 105% | viability, T/C [8] 123% | viability, T/C [9] 96.8% | viability, T/C [10] 120% | viability, T/C [11] 114% | viability, T/C [12] 108% | viability, T/C [13] 86% | viability, T/C [14] 88.7% | viability, T/C [15] 88.3% | viability, T/C [16] 95.7% | viability, T/C [17] 98.2% | viability, T/C [18] 87.6% | viability, T/C [19] 96.7% | viability, T/C [20] 106% | viability, T/C [21] 64% | viability, T/C [22] 94.8% | viability, T/C [23] 73.4% | viability, T/C [24] 68.9% | viability, T/C [25] 71.3% | viability, T/C [26] 84.3% | viability, T/C [27] 89.5% | viability, T/C [28] 85.1% | viability, T/C [29] 95% | viability, T/C [30] 72.2% | viability, T/C [31] 62.1% | viability, T/C [32] 99.5% | viability, T/C [33] 96.8% | viability, T/C [34] 84.5% | viability, T/C [35] 75.5% | viability, T/C [36] 68.8%

CC(Cn1ccc(-c2ccc(C#N)c(Cl)c2)n1)NC(=O)c1cc(C(C)O)[nH]n1 (stereo unspecified) + CC(Nc1ncnc2nc[nH]c12)c1cc2cccc(Cl)c2c(=O)n1-c1ccccc1
inactive: viability, T/C [1] 98.6% | viability, T/C [2] 93.4% | viability, T/C [3] 97.3% | viability, T/C [4] 111% | viability, T/C [5] 117% | viability, T/C [6] 108% | viability, T/C [7] 124% | viability, T/C [8] 85.2% | viability, T/C [9] 88.7% | viability, T/C [10] 99% | viability, T/C [11] 93.9% | viability, T/C [12] 113% | viability, T/C [13] 94.3% | viability, T/C [14] 116% | viability, T/C [15] 116% | viability, T/C [16] 98.2% | viability, T/C [17] 74.5% | viability, T/C [18] 102% | viability, T/C [19] 110% | viability, T/C [20] 105% | viability, T/C [21] 128% | viability, T/C [22] 102% | viability, T/C [23] 103% | viability, T/C [24] 96% | viability, T/C [25] 94.5% | viability, T/C [26] 77.3% | viability, T/C [27] 105% | viability, T/C [28] 91.2% | viability, T/C [29] 94.6% | viability, T/C [30] 104% | viability, T/C [31] 79.7% | viability, T/C [32] 69.8% | viability, T/C [33] 82% | viability, T/C [34] 68.4% | viability, T/C [35] 87.6% | viability, T/C [36] 97.8%
> 10 µM: IC50 (second compound 0.0316 µM) | IC50 (second compound 0.1 µM) | IC50 (second compound 0.316 µM) | IC50 (second compound 1 µM) | IC50 (second compound 3.16 µM) | IC50 (second compound 10 µM)
